Experimental data from US20210069213A1, “COMPOSITION AND METHOD OF TREATMENT FOR DRY A.M.D. (AGE RELATED MACULAR DEGENERATION)” (EYE CO PTY LTD, priority 2018, published 2021).
Like-named read-outs stand apart in the source and are kept apart here.

Key:
[1] = test system: light-damage model of dry AMD; experiment: Light-damage model of dry AMD in mice; type: in vivo
[2] = test system: New Zealand albino rabbits; conditions: cited from earlier work; for ERG change in the other groups: intravitreal 2 mg, 1 mg, 400 μg/0.1 ml; for ERG change in the other groups / ERG change: two weeks after injection; for intravitreal (vitreous) haemorrhage: intravitreal 4 mg/0.1 mL; for ERG change: intravitreal 4 mg/0.1 ml
[3] = test system: monkey choroidal endothelial cells (CECs); conditions: PMA-stimulated CECs; FA compared with TA; cited from earlier work
[4] = test system: New Zealand albino rabbits; experiment: Intravitreal toxicology of fludrocortisone acetate in rabbit eyes; type: in vivo; conditions: based on vitreous volume, man 4 mL vs rabbit 1.5 mL
Text: The eyes were enucleated and examined with light microscopy.
Investigative Ophthalmology & Visual Science, 2006. 47(13): p. 4281-4281 ]. […] Their eyes were enucleated and examined with light microscopy.

[5] = FA delivered in Kenalog vehicle, 7 days later

Structure (SMILES): CC(=O)OCC(=O)[C@@]1(O)CC[C@H]2[C@@H]3CCC4=CC(=O)CC[C@]4(C)[C@@]3(F)[C@@H](O)C[C@@]21C [Fludrocortisone acetate, 9-α-Fiuoro-11 β. 17 α, 21-trihydroxy-4-pregnene-3, 20 dione acetate]
- cell death [1, 5]: significantly less cell death
- macrophages that carry the IBA1 marker [1, 5]: significantly fewer macrophages
- Electroretinogram A-wave (Photoreceptor function) and B-wave (inner retinal function) ([1]; FA-treated animals): significantly more robust
- outer nuclear layer thickness (histology) ([1]; FA-treated animals): much thicker outer nuclear layer
- histological examination of retinal sections (light microscopy) ([2]; 400 μg to 4 mg per eye): no evidence of toxicity or vacuolization except for one eye in the 4mg group
- time by which all aggregates disappeared from the vitreous ([2]; 2-mg group): 22 ± 8 days
- time by which all aggregates disappeared from the vitreous ([2]; 4-mg group): 33 ± 7 days
- IOP ([2]; all groups): normal
- ERG change in the other groups [2]: normal ERG
- ERG change in the other groups ([2]; listed as FA): no other problems of reductions in ERG
- intravitreal (vitreous) haemorrhage [2]: 1
- intravitreal (vitreous) haemorrhage ([2]; listed as FA): Two eyes at 4 mg/0.1 ml experienced intravitreal haemorrhage
- ERG change [2]: one eye injected with 4 mg/0.1 ml exhibited decreases in ERG output
- ERG change ([2]; listed as FA): reduced ERG
- signs of retinal toxicity on slit-lamp examination, indirect ophthalmoscopy, or light microscopy ([2]; rabbit, in vivo): no signs of retinal toxicity
- tolerability in animal toxicology studies ([2]; rabbit, in vivo): well-tolerated
- inflammation in anterior or posterior segment (slit lamp biomicroscopy, indirect ophthalmoscopy) ([2]; up to 40 days of observations, all treatment groups): did not show any evidence of significant inflammation
- restoring quiescent morphology [3]: superior to TA
- human equivalent dose [4]: 67 mg/eye every 4 weeks
